Test results: PMC11864979, “First-in-class ultralong-target-residence-time p38α inhibitors as a mitosis-targeted therapy for colorectal cancer” (Nature Cancer, 2025)
Several values for one entry are separate records, joined by “and”; a condition that tells them apart may be missing. Identical values can stand only once. Like-named read-outs stand apart in the source and are kept apart here.

Legend:
KAP^2D cells [1] = test: annexin V apoptosis analysis in KAP^2D cells; type: cell-based, mouse; conditions: Fig. 5a
Protocol: Apoptosis was analyzed with the FITC annexin V apoptosis detection kit (Biolegend). Both measurements were performed with FACS Canto II (BD) and physical parameters were used to exclude cell debris and cell doublets.

HCT 116 = test: cell viability in human CRC cell line HCT 116; type: cell-based; conditions: 4 d
Protocol: (§1) To generate KAP^2D cells, KAP organoids were isolated from Matrigel, fragmented by mechanical dissociation and plated without any extracellular matrix on common cell culture dishes. Phoenix-Eco packaging cells (CRL-3214), HCT-15 (CCL-225), HCT 116 (CCL-247), COLO 205 (CCL-222), LS 174T (CL-188), RKO (CRL-2577) and HT-29 (HTB-38) were obtained from the American Type Culture Collection. The cells were cultured at 37 °C and 7% CO2 with RPMI (KAP^2D cells) or DMEM (other cell lines), supplemented with 10% FBS and penicillin–streptomycin. KAP^2D cells were authenticated using PCR (Kras locus and Trp53 locus). Phoenix-Eco packaging cells and HCT-15, HCT 116, COLO 205, LS 174T, RKO and HT-29 cells were authenticated by the provider using short tandem repeat profiling. No commonly misidentified cell lines were used. Mycoplasma contamination was excluded by a PCR-based analysis.
(§2) For in vitro treatment studies, organoids were mechanically dissociated and digested using TrypLE supplemented with 100 µg ml^−1 DNaseI and 10.5 µM Y-27632 dihydrochloride (Invitrogen) at 37 °C. A total of 1,000–2,000 single cells were plated per well in white 96-well plates (Greiner) in culture medium containing 10% GFR Matrigel or Cultrex BME. The treatment with doxycycline (5 µg ml^−1), pharmacological inhibitors or corresponding volumes of DMSO was started 24 h after plating. Doxycycline was obtained from Sigma-Aldrich. […] Cell viability was measured by means of CellTiter-Glo 3D or CellTiter-Glo 2.0 reagent (Promega) according to the manufacturers’ instructions and the Infinite M Plex reader (Tecan, i-control version 3.9.1 software). Results were normalized to vehicle (DMSO) or to shNC. For cell-doubling assays, the cell number was quantified at the corresponding time points using Guava EasyCyte flow cytometer (Luminex, CytoSoft v5.2 software).

HCT-15 = test: cell viability in human CRC cell line HCT-15; type: cell-based; conditions: 4 d
Protocol: as §1, §2

RKO = test: cell viability in human CRC cell line RKO; type: cell-based; conditions: ED Fig. 9g, replicates
Protocol: as §1, §2

p38α = p38α (Homo sapiens, UniProt Q16539); test: target residence time (TRT) fluorescence polarization jump-dilution assay; type: binding
Protocol: TRTs were determined using a fluorescence polarization assay kit (Transcreener ADP, BellBrook Labs)[29]. […] The formed complex was ‘jump-diluted’ 1:100 (0.5 µl in 49.5 µl) in a 96-half-area-well plate with ATF2 (82 μM), ATP (40 μM) and ADP as the kinase assay detection reagents. The plate was measured every 3 min for 4 h. Fluorescence polarization was detected using the plate reader VictorNivo (PerkinElmer). The data were analyzed using the integrated rate equation in GraphPad Prism version 7.03 software. The residence time was calculated from the reciprocal value of koff.

PDO9 = test: cell viability in patient-derived CRC organoids PDO9; type: cell-based, human
Protocol: as §2

KAP^2D cells [2] = test: P-H3^S10 / α-tubulin staining, mitotic phases in KAP^2D cells; type: cell-based, mouse; conditions: replicates, experiment and repetition
Protocol: Immunofluorescence staining on cells and organoids was performed on glass coverslips or tissue culture chambers (Sarstedt). Organoids were plated in medium containing 10% Matrigel or Cultrex BME. The cultures were fixed with 4% paraformaldehyde and stained with specific antibodies and DAPI (Vector Labs). All used antibodies and dilutions are listed in the Nature Portfolio Reporting Summary. For analyzing DNA synthesis, the Molecular Probes Click-iT EdU Alexa Fluor 555 kit was used 24 h after EdU incorporation with DAPI counterstaining. SA-β-Gal staining of cells was performed in cell culture dishes (cells) or tissue culture chambers (organoids) after fixation with 0.5% glutaraldehyde as described above. Human cultures were incubated with X-Gal solution at pH 6.0 for ~4 h. […] Positive cells were quantified using ImageJ version 1.53a software. The analysis of mitosis was performed with an LSM800 Airyscan (Zeiss) microscope (ZEN version 3.0 software). An Airyscan autofilter processing was applied before image analysis.

PDO11 = test: cell viability in patient-derived CRC organoids PDO11; type: cell-based, human
Protocol: as §2

p38α, sequence (Q16539 whole entry): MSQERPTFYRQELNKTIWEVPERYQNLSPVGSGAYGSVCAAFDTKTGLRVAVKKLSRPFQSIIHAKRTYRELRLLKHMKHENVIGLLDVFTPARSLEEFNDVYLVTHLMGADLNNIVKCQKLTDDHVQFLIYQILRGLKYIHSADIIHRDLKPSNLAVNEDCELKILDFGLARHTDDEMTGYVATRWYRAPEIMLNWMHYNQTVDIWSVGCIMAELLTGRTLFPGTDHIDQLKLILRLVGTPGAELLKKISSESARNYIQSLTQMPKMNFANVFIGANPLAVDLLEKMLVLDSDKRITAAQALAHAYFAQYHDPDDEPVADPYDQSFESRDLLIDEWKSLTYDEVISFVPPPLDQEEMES

Question: What does the source list for O=C(NCCN1CCOCC1)c1ccc2c(c1)C(=O)c1ccc(Nc3ccc(F)c(NC(=O)c4ccccc4)c3)cc1CC2 [Compound 1639]?
Answer: Annexin V+ cells (KAP^2D cells [1]; 1 d of treatment): 8.73% and 12.40% and 11.20% and 14.50% and 15.70% and 14.40%; Annexin V+ cells (KAP^2D cells [1]; 2 d of treatment): 12.80% and 17.60% and 14.40% and 15.50% and 16.80% and 17.40%; Annexin V+ cells (KAP^2D cells [1]; 3 d of treatment): 16.10% and 14.80% and 15.90% and 19.00% and 17.40% and 18.40%; Annexin V+ cells (KAP^2D cells [1]; 4 d of treatment): 26.70% and 25.10% and 21.50% and 18.80% and 17.30% and 19.40%; HCT 116 Cell viability (%) (HCT 116; 0.0137 µM): 91.07% and 92.02% and 85.19% and 84.20% and 84.23%; HCT 116 Cell viability (%) (HCT 116; 0.0412 µM): 81.63% and 80.34% and 77.04% and 76.76% and 74.10%; HCT 116 Cell viability (%) (HCT 116; 0.1235 µM): 88.84% and 91.52% and 85.54% and 79.01% and 86.05%; HCT 116 Cell viability (%) (HCT 116; 0.3704 µM): 94.73% and 98.85% and 85.83% and 87.08% and 84.20%; HCT 116 Cell viability (%) (HCT 116; 1.1111 µM): 93.31% and 91.15% and 89.63% and 87.68% and 87.77%; HCT 116 Cell viability (%) (HCT 116; 3.3333 µM): 77.27% and 77.51% and 74.83% and 76.92% and 78.08%; HCT 116 Cell viability (%) (HCT 116; 10.0000 µM): 46.79% and 45.46% and 36.02% and 37.60% and 41.48%; viability at 0.0137 µM (HCT 116; Homo sapiens, HCT-116, 96 h, 0.0137 µM, read-out: HCT 116 Cell viability (%)): 89.2%; viability at 0.0412 µM (HCT 116; Homo sapiens, HCT-116, 96 h, 0.0412 µM, read-out: HCT 116 Cell viability (%)): 83.7%; viability at 0.1235 µM (HCT 116; Homo sapiens, HCT-116, 96 h, 0.1235 µM, read-out: HCT 116 Cell viability (%)): 89%; viability at 0.3704 µM (HCT 116; Homo sapiens, HCT-116, 96 h, 0.3704 µM, read-out: HCT 116 Cell viability (%)): 94.1%; viability at 1.1111 µM (HCT 116; Homo sapiens, HCT-116, 96 h, 1.1111 µM): 90.8%; viability at 3.3333 µM (HCT 116; Homo sapiens, HCT-116, 96 h, 3.3333 µM, read-out: HCT 116 Cell viability (%)): 74%; viability at 10 µM (HCT 116; Homo sapiens, HCT-116, 96 h, 10.0000 µM): 45.5%; HCT-15 Cell viability (%) (HCT-15; 0.0137 µM): 92.80% and 91.50% and 85.00% and 82.22% and 80.95%; HCT-15 Cell viability (%) (HCT-15; 0.0412 µM): 78.90% and 80.07% and 94.65% and 93.32% and 92.61%; HCT-15 Cell viability (%) (HCT-15; 0.1235 µM): 84.07% and 87.40% and 91.28% and 90.94% and 89.46%; HCT-15 Cell viability (%) (HCT-15; 0.3704 µM): 84.12% and 88.83% and 87.00% and 85.77% and 86.10%; HCT-15 Cell viability (%) (HCT-15; 1.1111 µM): 77.30% and 80.39% and 72.06% and 72.72% and 71.41%; HCT-15 Cell viability (%) (HCT-15; 3.3333 µM): 62.02% and 64.03% and 55.98% and 56.04% and 55.89%; HCT-15 Cell viability (%) (HCT-15; 10.0000 µM): 36.90% and 37.04% and 27.63% and 27.72% and 28.84%; viability at 0.0137 µM (HCT-15; Homo sapiens, HCT-15, 96 h, 0.0137 µM, read-out: HCT-15 Cell viability (%)): 95.1%; viability at 0.0412 µM (HCT-15; Homo sapiens, HCT-15, 96 h, 0.0412 µM, read-out: HCT-15 Cell viability (%)): 77.5%; viability at 0.1235 µM (HCT-15; Homo sapiens, HCT-15, 96 h, 0.1235 µM, read-out: HCT-15 Cell viability (%)): 82.6%; viability at 0.3704 µM (HCT-15; Homo sapiens, HCT-15, 96 h, 0.3704 µM, read-out: HCT-15 Cell viability (%)): 80.4%; viability at 1.1111 µM (HCT-15; Homo sapiens, HCT-15, 96 h, 1.1111 µM, read-out: HCT-15 Cell viability (%)): 74%; viability at 3.3333 µM (HCT-15; Homo sapiens, HCT-15, 96 h, 3.3333 µM, read-out: HCT-15 Cell viability (%)): 56.5%; viability at 10 µM (HCT-15; Homo sapiens, HCT-15, 96 h, 10.0000 µM, read-out: HCT-15 Cell viability (%)): 36.6%; RKO Cell viability (%) (RKO; 0.0137 µM, Repetition): 124.75% and 148.62% and 118.75%; RKO Cell viability (%) (RKO; 0.0137 µM, first experiment): 98.53% and 90.98%; RKO Cell viability (%) (RKO; 0.0412 µM, Repetition): 93.50% and 149.21% and 112.61%; RKO Cell viability (%) (RKO; 0.0412 µM, first experiment): 86.59% and 83.94%; RKO Cell viability (%) (RKO; 0.1235 µM, Repetition): 125.44% and 110.57%; RKO Cell viability (%) (RKO; 0.1235 µM, first experiment): 85.12% and 86.17%; RKO Cell viability (%) (RKO; 0.3704 µM, Repetition): 111.28% and 89.40%; RKO Cell viability (%) (RKO; 0.3704 µM, first experiment): 77.62% and 74.11%; RKO Cell viability (%) (RKO; 1.1111 µM, Repetition): 109.66% and 139.17% and 117.64%; RKO Cell viability (%) (RKO; 1.1111 µM, first experiment): 95.27% and 88.88%; RKO Cell viability (%) (RKO; 3.3333 µM, Repetition): 74.32% and 93.61% and 73.54%; RKO Cell viability (%) (RKO; 3.3333 µM, first experiment): 74.12% and 74.43%; RKO Cell viability (%) (RKO; 10.0000 µM, Repetition): 42.39% and 44.96%; RKO Cell viability (%) (RKO; 10.0000 µM, first experiment): 30.57% and 37.00%; viability at 0.0137 µM (RKO; Homo sapiens, RKO, 0.0137 µM, first experiment, read-out: RKO Cell viability (%)): 96.7%; viability at 0.0412 µM (RKO; Homo sapiens, RKO, 0.0412 µM, first experiment, read-out: RKO Cell viability (%)): 88.2%; viability at 0.1235 µM (RKO; Homo sapiens, RKO, 0.1235 µM, Repetition, read-out: RKO Cell viability (%)): 111%; viability at 0.1235 µM (RKO; Homo sapiens, RKO, 0.1235 µM, first experiment, read-out: RKO Cell viability (%)): 82.2%; viability at 0.3704 µM (RKO; Homo sapiens, RKO, 0.3704 µM, first experiment, read-out: RKO Cell viability (%)): 86%; viability at 1.1111 µM (RKO; Homo sapiens, RKO, 1.1111 µM, first experiment, read-out: RKO Cell viability (%)): 85.9%; viability at 3.3333 µM (RKO; Homo sapiens, RKO, 3.3333 µM, first experiment, read-out: RKO Cell viability (%)): 75%; viability at 10 µM (RKO; Homo sapiens, RKO, 10.0000 µM, Repetition, read-out: RKO Cell viability (%)): 43.1%; viability at 10 µM (RKO; Homo sapiens, RKO, 10.0000 µM, first experiment, read-out: RKO Cell viability (%)): 31.2%; TRT (p38α; Fig. 2e, replicates): 191.2 s and 188.8 s and 173.0 s; TRT (p38α; reciprocal of koff): 184 s; viability at 1 µM (PDO9; Homo sapiens, 96 h, PDO9, 1 µM, 4 days): 76.2%; Cell viability (%) (PDO9; PDO9, 0.5 µM, 4 d, 0.5 µM): 87.86% and 110.04% and 106.00%; Cell viability (%) (PDO9; PDO9, 1 µM, 4 days, 1 µM): 91.05% and 91.07%; Anaphase, % (of fully P-H3S10+ cells) (KAP^2D cells [2]; Fig. 4f): 14.94% and 12.77% and 11.59% and 15.15% and 10.11% and 8.57%; Metaphase, % (of fully P-H3S10+ cells) (KAP^2D cells [2]; Fig. 4f): 17.24% and 21.28% and 8.70% and 19.70% and 24.72% and 20.00%; Multipolar mitosis, % (of fully P-H3S10+ cells) (KAP^2D cells [2]; Fig. 4f): 9.20% and 12.77% and 8.70% and 9.09% and 10.11% and 8.57%; Telophase, % (of fully P-H3S10+ cells) (KAP^2D cells [2]; Fig. 4f): 12.64% and 9.57% and 7.25% and 16.67% and 10.11% and 14.29%; P-H3S10+ cells, fully positive (KAP^2D cells [2]; Fig. 4d): 5.80% and 5.96% and 4.15% and 4.12% and 5.10% and 3.55%; P-H3S10+ cells, partially positive (KAP^2D cells [2]; Fig. 4d): 8.66% and 7.86% and 7.71% and 7.49% and 8.02% and 8.52%; Cell viability (%) (PDO11; PDO11, 0.5 µM, 4 d, 0.5 µM): 109.25% and 122.99% and 99.10%; Cell viability (%) (PDO11; PDO11, 1 µM, 4 days, 1 µM): 102.62% and 119.73% and 93.65%
